{
  "source": "paper PMC5500233",
  "about": "(Peptides, 2016)",
  "key": {"DPP 3": {"test_system": "DPP 3", "conditions": "ref [2],[15]; cited from earlier work"}, "human DPP 3 [1]": {"target": "T1, human DPP 3 (Homo sapiens, UniProt Q9NY33)", "T1 sequence (Q9NY33 1-737)": "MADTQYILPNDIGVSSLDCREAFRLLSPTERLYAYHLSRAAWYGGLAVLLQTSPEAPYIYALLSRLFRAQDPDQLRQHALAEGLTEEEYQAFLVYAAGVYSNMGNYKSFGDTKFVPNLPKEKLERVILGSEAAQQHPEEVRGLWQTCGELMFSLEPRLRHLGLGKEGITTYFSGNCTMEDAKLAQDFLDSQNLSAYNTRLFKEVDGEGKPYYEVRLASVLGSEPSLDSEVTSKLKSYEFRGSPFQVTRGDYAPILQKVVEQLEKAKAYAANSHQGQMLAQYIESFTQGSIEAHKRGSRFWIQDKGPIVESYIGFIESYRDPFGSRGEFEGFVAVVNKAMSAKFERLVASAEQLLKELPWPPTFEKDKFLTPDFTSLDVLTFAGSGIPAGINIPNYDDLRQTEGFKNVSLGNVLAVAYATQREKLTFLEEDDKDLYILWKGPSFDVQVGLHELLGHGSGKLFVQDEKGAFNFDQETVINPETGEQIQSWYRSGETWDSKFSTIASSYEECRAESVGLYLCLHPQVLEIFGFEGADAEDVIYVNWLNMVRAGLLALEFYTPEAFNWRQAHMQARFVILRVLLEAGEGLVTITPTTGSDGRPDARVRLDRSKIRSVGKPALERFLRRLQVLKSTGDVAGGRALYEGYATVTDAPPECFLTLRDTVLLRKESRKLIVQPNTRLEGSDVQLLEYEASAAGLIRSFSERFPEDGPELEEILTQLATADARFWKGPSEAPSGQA", "assay": "Kinetic studies of Ang-", "type": "biochemical", "conditions": "37 °C, n=3"}, "[2]": {"test_system": "Ang-(1–7) peptidase, partially purified fraction from brain medulla", "conditions": "ref [15], cited from earlier work"}, "human DPP 3 [3]": {"target": "T1, human DPP 3", "assay": "Metabolism of unlabeled Ang-", "type": "biochemical", "conditions": "100 μM Ang-(1–7), 37 °C, HPLC-UV"}, "Ang-(1–7) RIA": {"test_system": "Ang-(1–7) RIA", "conditions": "as previously described; ref [27]; cited from earlier work"}, "HK-2 cells": {"test_system": "HK-2 cells", "assay": "Intracellular Ang-", "type": "cell-based, human"}, "human DPP 3 [4]": {"target": "T1, human DPP 3", "assay": "JMV-390 inhibition of ^125I-Ang-", "type": "biochemical", "conditions": "JMV-390, Fig. 3: 0.5 and 10 nM"}, "[5]": {"test_system": "purified Ang-(1–7) peptidase from HK-2 cells", "assay": "JMV-390 inhibition of ^125I-Ang-", "type": "biochemical, human", "conditions": "JMV-390, Fig. 3: 0.5 and 10 nM"}, "[6]": {"target": "Ang-(1–7) peptidase in renal tubules", "conditions": "JMV-390, ref [15],[25]; cited from earlier work"}, "[7]": {"target": "Ang-(1–7) peptidase, partially purified fraction from brain medulla", "conditions": "JMV-390; brain medulla Ang-(1–7) peptidase; ref [15]; cited from earlier work"}, "[8]": {"test_system": "DPP 3 activity in HK-2 cells", "assay": "^125I-Ang-", "type": "cell-based, human", "conditions": "for peptidase activity: mean±SEM, control 136±6"}, "[9]": {"test_system": "TOP expressed in the HK-2 cells", "conditions": "high dose of JMV-390; ref [25]; cited from earlier work"}, "HK-2 peptidase": {"test_system": "HK-2 peptidase", "conditions": "ref [25]; cited from earlier work"}},
  "note": "Several values for one entry are separate records, joined by “and”; a condition that tells them apart may be missing. Equal values may be shown once. Entries after “also recorded” stand apart in the source; their conditions may differ.",
  "data": [
    {"molecule": "O=C(O)c1cc[c]([Hg][Cl])cc1", "note": "[PCMB]", "values": [
      {"measurement": "sensitivity of DPP 3 to thiol inhibitors and chelating agents", "setting": "DPP 3", "result": "unusual sensitivity"}
    ]},
    {"molecule": "Angiotensin-(1–7) [Ang-(1–7)]", "values": [
      {"measurement": "kcat", "setting": "human DPP 3 [1]", "result": 7.3, "unit": "s⁻¹"},
      {"measurement": "hydrolysis rate, fold higher than Ang II", "setting": "[2]; enriched brain medulla peptidase", "result": 12, "unit": "fold"},
      {"measurement": "product of unlabeled Ang-(1–7) hydrolysis", "setting": "human DPP 3 [3]; 100 ng human DPP 3, 60 min", "result": "a major peak corresponding to the metabolite Ang-(5–7)"}
    ]},
    {"molecule": "Ang II: angiotensin peptide (DRVYIHPF; Angiotensin-2; UniProt P01019 25-32, looked up)", "values": [
      {"measurement": "recognition by Ang-(1–7) RIA (cross-reactivity)", "setting": "Ang-(1–7) RIA", "result": "< 0.01", "unit": "%"}
    ]},
    {"molecule": "neurotensin", "values": [
      {"measurement": "metabolism by enriched peptidase", "setting": "[2]", "result": "failed to metabolize"}
    ]},
    {"molecule": "apelin 13", "values": [
      {"measurement": "metabolism by enriched peptidase", "setting": "[2]", "result": "failed to metabolize"}
    ]},
    {"molecule": "c1cnc2c(c1)ccc1cccnc12", "note": "[ophenanthroline]", "values": [
      {"measurement": "sensitivity of DPP 3 to thiol inhibitors and chelating agents", "setting": "DPP 3", "result": "unusual sensitivity"}
    ]},
    {"molecule": "Ang-(2–7): angiotensin peptide recognized by the Ang-(1–7) RIA (RVYIHP; UniProt P01019 26-31, looked up, fragment)", "values": [
      {"measurement": "recognition by Ang-(1–7) RIA", "setting": "Ang-(1–7) RIA", "result": "recognizes"}
    ]},
    {"molecule": "APMA", "values": [
      {"measurement": "sensitivity of DPP 3 to thiol inhibitors and chelating agents", "setting": "DPP 3", "result": "unusual sensitivity"}
    ]},
    {"molecule": "O=C(O)CN(CCN(CC(=O)O)CC(=O)O)CC(=O)O", "note": "[EDTA]", "values": [
      {"measurement": "sensitivity of DPP 3 to thiol inhibitors and chelating agents", "setting": "DPP 3", "result": "unusual sensitivity"}
    ]},
    {"molecule": "bradykinin (RPPGFSPFR; Bradykinin; UniProt P01042 381-389, looked up)", "values": [
      {"measurement": "metabolism by enriched peptidase", "setting": "[2]", "result": "failed to metabolize"}
    ]},
    {"molecule": "CC[C@H](C)[C@H](NC(=O)[C@@H](CC(=O)NO)Cc1ccccc1)C(=O)N[C@@H](CC(C)C)C(=O)O", "note": "[JMV-390]", "values": [
      {"measurement": "effect on intracellular content of Ang-(1–7)", "setting": "HK-2 cells; 20 nM JMV-390, 72 h", "result": "tended to augment the cellular levels of Ang-(1–7); also recorded: increased the intracellular content of Ang-(1–7)"},
      {"measurement": "increase in Ang-(1–7) content", "setting": "HK-2 cells; 20 nM JMV-390, 72 h, vs basal, n = 3, not statistically significant", "result": 68, "unit": "%"},
      {"measurement": "effect on intracellular content of Ang-(1–7)", "setting": "HK-2 cells; 200 nM JMV-390, 72 h", "result": "significantly decreased the content of Ang-(1–7)"},
      {"measurement": "Ang-(1–7) content", "setting": "HK-2 cells; 200 nM JMV-390, 72 h, RIA, mean±SEM, n = 3, p<0.05 vs 20 nM JMV-390, basal 22 ±2", "result": "15 ±3", "unit": "fmols/mg protein"},
      {"measurement": "increase in cellular levels of Ang-(1–7)", "setting": "HK-2 cells; lower dose (20 nM) of JMV-390, not statistically significant", "result": "approximately 2 fold"},
      {"measurement": "effect on Ang-(1–7) hydrolysis by DPP 3", "setting": "human DPP 3 [4]", "result": "abolished; also recorded: attenuated the metabolism"},
      {"measurement": "effect on Ang-(1–7) hydrolysis by purified Ang-(1–7) peptidase", "setting": "[5]", "result": "abolished; also recorded: attenuated the metabolism"},
      {"measurement": "IC50", "setting": "[6]", "result": "~1", "unit": "nM"},
      {"measurement": "IC50", "setting": "[7]", "result": "< 1", "unit": "nM"},
      {"measurement": "peptidase activity", "setting": "[8]; 20 nM JMV-390, 72 h, n = 2", "result": "76 ± 13", "unit": "fmol/min/mg"},
      {"measurement": "peptidase activity", "setting": "[8]; 200 nM JMV-390, 72 h, n = 3, p<0.05", "result": "17 ± 3", "unit": "fmol/min/mg"},
      {"measurement": "reduction of peptidase (DPP 3) activity", "setting": "[8]; 200 nM JMV-390, 72 h, vs control, n = 3, p<0.05", "result": "85% and > 80%"},
      {"measurement": "effect on metabolism of ^125I-Ang-(1–7) to ^125I-Ang-(3-4)", "setting": "[8]; 20 or 200 nM JMV-390, 72 h, 100,000 × g cytosolic fraction", "result": "significantly reduced the metabolism"},
      {"measurement": "metabolism of unlabeled Ang-(1–7) to Ang-(5–7) in presence of inhibitor", "setting": "human DPP 3 [3]; JMV-390 1 μM, 100 ng DPP 3, 60 min", "result": "attenuated the metabolism of Ang-(1–7)"},
      {"measurement": "direct conversion of ^125I-Ang I to ^125I-Ang-(1–7) by TOP", "setting": "[9]", "result": "inhibited the direct conversion"}
    ]},
    {"molecule": "[Abz-Asp^1, Tyr (NO2)^7]-Ang-(1–7)]", "values": [
      {"measurement": "hydrolysis by HK-2 peptidase", "setting": "HK-2 peptidase", "result": "resistant"}
    ]}
  ]
}
